Drawing on patent publication US20250171437A1 (Agios Pharmaceuticals,Inc., priority 2022, published 2025), this text covers AC50 for 25 compounds.

In this assay the target is T1, human PAH with the R408W mutation (A375 R408W cells) (Homo sapiens, UniProt P00439, R408W).
T1 construct: expressed in transfected cells
T1 sequence (P00439 1-452 R408W): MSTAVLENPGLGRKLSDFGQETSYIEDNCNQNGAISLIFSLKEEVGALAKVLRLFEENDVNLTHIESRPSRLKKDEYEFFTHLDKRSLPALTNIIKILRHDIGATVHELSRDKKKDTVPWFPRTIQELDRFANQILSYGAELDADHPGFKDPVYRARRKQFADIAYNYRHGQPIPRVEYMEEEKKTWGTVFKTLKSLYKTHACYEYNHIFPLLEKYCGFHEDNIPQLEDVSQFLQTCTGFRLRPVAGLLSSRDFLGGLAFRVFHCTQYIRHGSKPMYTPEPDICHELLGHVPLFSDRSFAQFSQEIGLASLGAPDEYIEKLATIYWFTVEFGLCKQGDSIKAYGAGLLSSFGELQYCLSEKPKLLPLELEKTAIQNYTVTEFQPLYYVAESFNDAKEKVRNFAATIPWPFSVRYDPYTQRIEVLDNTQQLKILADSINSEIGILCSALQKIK
The assay can be described thus: Cell Based Phenylalanine Flux Assay. Particulars: A375 R408W cells; 24 hrs with compound, then 20 μM sepiapterin and 800 μM 13C9,15N-Phenylalanine for 4 hours; 13C-Tyrosine by LC-MS; average where tested multiple times. The method in brief: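 LC-MS quantitation of 13C-tyrosine in media gave AC50 values. Stable A375 R408W PAH cells were preincubated 24 h with compound, then fed 800 μM labelled Phe plus 20 μM sepiapterin for 4 h. Dose curves were 10-point, tested in duplicate, averaged over repeat runs.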
Broadly, the AC50 is the concentration at which the activity in the assay is half-maximal. `CC(C)(O)c1nc(C(F)(F)F)c(C(=O)N2CCc3[nH]cnc3[C@@H]2c2nc3ccc(F)cc3o2)o1` [Example 256, (R)-(4-(6-fluorobenzo[d]oxazol-2-yl)-6,7-dihydro-1H-imidazo[4,5-c]pyridin-5(4H)-yl)(2-(2-hydroxypropan-2-yl)-4-(trifluoromethyl)oxazol-5-yl)methanone]: the AC50 lay within 1000 to 5000 nM.
As for `CC(C)(O)c1nc(C(F)(F)F)c(C(=O)N2CCc3[nH]cnc3[C@H]2c2nc3c(F)cccc3o2)o1` [Example 257, (S)-(4-(4-fluorobenzo[d]oxazol-2-yl)-6,7-dihydro-1H-imidazo[4,5-c]pyridin-5(4H)-yl)(2-(2-hydroxypropan-2-yl)-4-(trifluoromethyl)oxazol-5-yl)methanone], the figure is no more than 500 nM; as for `CC(C)(O)c1nc(C(F)(F)F)c(C(=O)N2CCc3[nH]cnc3[C@@H]2c2nc3c(F)cccc3o2)o1` [Example 258, (R)-(4-(4-fluorobenzo[d]oxazol-2-yl)-6,7-dihydro-1H-imidazo[4,5-c]pyridin-5(4H)-yl)(2-(2-hydroxypropan-2-yl)-4-(trifluoromethyl)oxazol-5-yl)methanone], 1000 to 5000 nM; as for `Cc1nc(C(C)(C)O)oc1C(=O)N1CCc2[nH]cnc2[C@H]1c1nc2c(F)cccc2o1` [Example 259, (S)-(4-(4-fluorobenzo[d]oxazol-2-yl)-6,7-dihydro-1H-imidazo[4,5-c]pyridin-5(4H)-yl)(2-(2-hydroxypropan-2-yl)-4-methyloxazol-5-yl)methanone], 500 to 1000 nM.
As for `Cc1nc(C(C)(C)O)oc1C(=O)N1CCc2[nH]cnc2[C@@H]1c1nc2c(F)cccc2o1` [Example 260, (R)-(4-(4-fluorobenzo[d]oxazol-2-yl)-6,7-dihydro-1H-imidazo[4,5-c]pyridin-5(4H)-yl)(2-(2-hydroxypropan-2-yl)-4-methyloxazol-5-yl)methanone], the figure is no less than 5000 nM.
On to `O=C(c1ccnn1C(F)(F)F)N1CCc2[nH]cnc2[C@H]1c1nc2cc(F)ccc2o1` [Example 261, (S)-(4-(5-fluorobenzo[d]oxazol-2-yl)-6,7-dihydro-1H-imidazo[4,5-c]pyridin-5(4H)-yl)(1-(trifluoromethyl)-1H-pyrazol-5-yl)methanone], for which the half-maximal activity concentration (AC50) lay in the range of 500 to 1000 nM.
As for `O=C(c1ccnn1C(F)(F)F)N1CCc2[nH]cnc2[C@@H]1c1nc2cc(F)ccc2o1` [Example 262, (R)-(4-(5-fluorobenzo[d]oxazol-2-yl)-6,7-dihydro-1H-imidazo[4,5-c]pyridin-5(4H)-yl)(1-(trifluoromethyl)-1H-pyrazol-5-yl)methanone], the figure is 500 to 1000 nM.
Regarding `CC(C)(O)c1nc(Br)c(C(=O)N2CCc3[nH]cnc3[C@H]2c2nc3cccc(F)c3o2)o1` [Example 263, (S)-(4-bromo-2-(2-hydroxypropan-2-yl)oxazol-5-yl)(4-(7-fluorobenzo[d]oxazol-2-yl)-6,7-dihydro-1H-imidazo[4,5-c]pyridin-5(4H)-yl)methanone], the AC50 was no more than 500 nM.
As for `CC(C)(O)c1nc(Br)c(C(=O)N2CCc3[nH]cnc3[C@@H]2c2nc3cccc(F)c3o2)o1` [Example 264, (R)-(4-bromo-2-(2-hydroxypropan-2-yl)oxazol-5-yl)(4-(7-fluorobenzo[d]oxazol-2-yl)-6,7-dihydro-1H-imidazo[4,5-c]pyridin-5(4H)-yl)methanone], the concentration at half-maximal activity (AC50) was 500 to 1000 nM.
Turning to `COCc1ccc2c(C(=O)N3CCc4[nH]cnc4[C@H]3c3nc4cccc(F)c4o3)cnn2c1` [Example 265, (S)-(4-(7-fluorobenzo[d]oxazol-2-yl)-6,7-dihydro-1H-imidazo[4,5-c]pyridin-5(4H)-yl)(6-(methoxymethyl)pyrazolo[1,5-a]pyridin-3-yl)methanone], the AC50 was 500 to 1000 nM.
As to `COCc1ccc2c(C(=O)N3CCc4[nH]cnc4[C@@H]3c3nc4cccc(F)c4o3)cnn2c1` [Example 266, (R)-(4-(7-fluorobenzo[d]oxazol-2-yl)-6,7-dihydro-1H-imidazo[4,5-c]pyridin-5(4H)-yl)(6-(methoxymethyl)pyrazolo[1,5-a]pyridin-3-yl)methanone], the concentration at half-maximal activity (AC50) was no less than 5000 nM.
As for `Cc1nc(C(C)(C)O)oc1C(=O)N1CCc2[nH]cnc2[C@@H]1c1nc2cccc(F)c2o1` [Example 267, (R)-(4-(7-fluorobenzo[d]oxazol-2-yl)-6,7-dihydro-1H-imidazo[4,5-c]pyridin-5(4H)-yl)(2-(2-hydroxypropan-2-yl)-4-methyloxazol-5-yl)methanone], the figure is 1000 to 5000 nM; as for `Cc1nc(C(C)(C)O)oc1C(=O)N1CCc2[nH]cnc2[C@H]1c1nc2cccc(F)c2o1` [Example 268, (S)-(4-(7-fluorobenzo[d]oxazol-2-yl)-6,7-dihydro-1H-imidazo[4,5-c]pyridin-5(4H)-yl)(2-(2-hydroxypropan-2-yl)-4-methyloxazol-5-yl)methanone], 500 to 1000 nM; as for `CC(C)(O)c1nc(Cl)c(C(=O)N2CCc3[nH]cnc3[C@H]2c2nc3ccc(F)cc3o2)o1` [Example 269, (S)-(4-chloro-2-(2-hydroxypropan-2-yl)oxazol-5-yl)(4-(6-fluorobenzo[d]oxazol-2-yl)-6,7-dihydro-1H-imidazo[4,5-c]pyridin-5(4H)-yl)methanone], 500 to 1000 nM.
The result for `CC(C)(O)c1nc(Cl)c(C(=O)N2CCc3[nH]cnc3[C@@H]2c2nc3ccc(F)cc3o2)o1` [Example 270, (R)-(4-chloro-2-(2-hydroxypropan-2-yl)oxazol-5-yl)(4-(6-fluorobenzo[d]oxazol-2-yl)-6,7-dihydro-1H-imidazo[4,5-c]pyridin-5(4H)-yl)methanone] reads no less than 5000 nM.
The result for `CC(C)(O)c1nc(Cl)c(C(=O)N2CCc3[nH]cnc3[C@@H]2c2nc3cccc(F)c3o2)o1` [Example 271, (R)-(4-chloro-2-(2-hydroxypropan-2-yl)oxazol-5-yl)(4-(7-fluorobenzo[d]oxazol-2-yl)-6,7-dihydro-1H-imidazo[4,5-c]pyridin-5(4H)-yl)methanone] reads 1000 to 5000 nM; that for `CC(C)(O)c1nc(Cl)c(C(=O)N2CCc3[nH]cnc3[C@H]2c2nc3cccc(F)c3o2)o1` [Example 272, (S)-(4-chloro-2-(2-hydroxypropan-2-yl)oxazol-5-yl)(4-(7-fluorobenzo[d]oxazol-2-yl)-6,7-dihydro-1H-imidazo[4,5-c]pyridin-5(4H)-yl)methanone], no more than 500 nM; that for `CC(C)(O)c1nc(Cl)c(C(=O)N2CCc3[nH]cnc3[C@@H]2c2nc3c(F)cccc3o2)o1` [Example 273, (R)-(4-chloro-2-(2-hydroxypropan-2-yl)oxazol-5-yl)(4-(4-fluorobenzo[d]oxazol-2-yl)-6,7-dihydro-1H-imidazo[4,5-c]pyridin-5(4H)-yl)methanone], 1000 to 5000 nM.
On to `CC(C)(O)c1nc(Cl)c(C(=O)N2CCc3[nH]cnc3[C@H]2c2nc3c(F)cccc3o2)o1` [Example 274, (S)-(4-chloro-2-(2-hydroxypropan-2-yl)oxazol-5-yl)(4-(4-fluorobenzo[d]oxazol-2-yl)-6,7-dihydro-1H-imidazo[4,5-c]pyridin-5(4H)-yl)methanone], for which the AC50 was 500 to 1000 nM.
As for `COCc1ccc2c(C(=O)N3CCc4[nH]cnc4[C@H]3c3nc4c(F)cccc4o3)cnn2c1` [Example 275, (S)-(4-(4-fluorobenzo[d]oxazol-2-yl)-6,7-dihydro-1H-imidazo[4,5-c]pyridin-5(4H)-yl)(6-(methoxymethyl)pyrazolo[1,5-a]pyridin-3-yl)methanone], the figure is 500 to 1000 nM; as for `COCc1ccc2c(C(=O)N3CCc4[nH]cnc4[C@@H]3c3nc4c(F)cccc4o3)cnn2c1` [Example 276, (R)-(4-(4-fluorobenzo[d]oxazol-2-yl)-6,7-dihydro-1H-imidazo[4,5-c]pyridin-5(4H)-yl)(6-(methoxymethyl)pyrazolo[1,5-a]pyridin-3-yl)methanone], no less than 5000 nM.
Regarding `Cn1nc(Cl)nc1C(=O)N1CCc2[nH]cnc2[C@H]1c1nc2c(F)cccc2o1` [Example 277, (S)-(3-chloro-1-methyl-1H-1,2,4-triazol-5-yl)(4-(4-fluorobenzo[d]oxazol-2-yl)-6,7-dihydro-1H-imidazo[4,5-c]pyridin-5(4H)-yl)methanone], the half-maximal activity concentration (AC50) was 500 to 1000 nM.
On to `Cn1nc(Cl)nc1C(=O)N1CCc2[nH]cnc2[C@@H]1c1nc2c(F)cccc2o1` [Example 278, (R)-(3-chloro-1-methyl-1H-1,2,4-triazol-5-yl)(4-(4-fluorobenzo[d]oxazol-2-yl)-6,7-dihydro-1H-imidazo[4,5-c]pyridin-5(4H)-yl)methanone], for which the AC50 lay within 1000 to 5000 nM.
The result for `Cn1nc(C(F)(F)F)nc1C(=O)N1CCc2[nH]cnc2[C@H]1c1nc2cccc(F)c2o1` [Example 279, (S)-(4-(7-fluorobenzo[d]oxazol-2-yl)-6,7-dihydro-1H-imidazo[4,5-c]pyridin-5(4H)-yl)(1-methyl-3-(trifluoromethyl)-1H-1,2,4-triazol-5-yl)methanone] reads 500 to 1000 nM; that for `Cn1nc(C(F)(F)F)nc1C(=O)N1CCc2[nH]cnc2[C@@H]1c1nc2cccc(F)c2o1` [Example 280, (R)-(4-(7-fluorobenzo[d]oxazol-2-yl)-6,7-dihydro-1H-imidazo[4,5-c]pyridin-5(4H)-yl)(1-methyl-3-(trifluoromethyl)-1H-1,2,4-triazol-5-yl)methanone], 1000 to 5000 nM.
